Assay results from US11267824B2, “Inhibitors of indoleamine 2,3-dioxygenase and/or tryptophan 2,3-dioxygenase” (IDORSIA PHARMACEUTICALS LTD, priority 2017, dated 2022).

Columns and labels:
[1] = molecular target: Recombinant full-length human IDO1 (Homo sapiens (Human), UniProt P14902); assay: IDO1 enzymatic assay (IDO inhibitory activity); assay type: biochemical; conditions: 2 nM enzyme, 5 μM L-tryptophan, pH6.5, 30 min pre-incubation, NFK quantified by LCMS; mean values if measured multiple times; read-out: hIDO activity (IC50 in nM)
Description: 1) Testing Compounds for IDO Inhibitory Activity in an IDO1 Enzymatic Assay:
Recombinant full-length human IDO1 with a N-terminal hexahistidine tag expressed in E. coli and purified to homogeneity is incubated at a final concentration of 2 nM in assay buffer consisting of 37.5 mM phosphate buffer at pH6.5 supplemented with 10 mM sodium L-ascorbate, 0.45 μM methylene blue, 50 U/ml catalase, 0.01% BSA, and 0.01% Tween 20 (protocol modified from Seegers et al, JBS 2014). Example compounds are serially diluted in DMSO, further diluted in phosphate buffer, and added to the enzyme at final concentrations ranging from 10 μM to 0.5 nM. The final DMSO concentration is 0.6%. Following a pre-incubation of 30 minutes at RT, the reaction is started by the addition of L-tryptophan at a final concentration of 5 μM in assay buffer. After 30 minutes of incubation at RT, 3 μL of the reaction mixture are transferred to a 384 deep well plate containing 25 μL of deionized water. 100 μl of 200 nM L-Tryptophan-(indole-d5) in cold 100% methanol are added followed by a 10 minutes centrifugation at 4,000 rpm at 4° C. An additional 75 μL of deionized water are then added and followed by a 10 minutes centrifugation at 4,000 rpm at 4° C. The product of the reaction N′-Formylkynurenine (NFK) is quantified by LCMS and normalized to the L-Tryptophan-(indole-d5) signal. Samples with 0.6% DMSO (0% effect) and a TDO/IDO inhibitor (100% effect) are used as control samples to set the parameters for the non-linear regression necessary for the determination of the half-maximal inhibitory concentration (IC50) for each compound. For each compound concentration the percentage of activity compared to 0% and 100% effect is calculated as average ±STDEV (each concentration measured in duplicate). IC50 values and curves are generated with XLfit software (IDBS) using Dose-Response One Site model 203 (four parameter logistic curve model). When compounds are measured multiple times, mean values are given.

[2] = molecular target: Recombinant human TDO comprising amino acids 19-407 (Homo sapiens (Human), UniProt P48775); assay: TDO2 enzymatic assay (TDO inhibitory activity); assay type: biochemical; conditions: 15 nM enzyme, 200 μM L-tryptophan, pH7, 30 min pre-incubation, NFK quantified by LCMS; mean values if measured multiple times; read-out: hTDO activity (IC50 in nM)
Description: 2) Testing Compounds for TDO Inhibitory Activity in a TDO2 Enzymatic Assay:
Recombinant human TDO comprising amino acids 19-407 with a N-terminal hexahistidine tag expressed in E. coli and purified to homogeneity is incubated at a final concentration of 15 nM in assay buffer consisting of 75 mM phosphate buffer at pH7 supplemented with 100 μM ascorbic acid, 50 U/ml Catalase, 0.01% BSA, and 0.01% Tween 20 (protocol modified from Seegers et al, JBS 2014). Example compounds are serially diluted in DMSO, further diluted in phosphate buffer, and added to the reaction mixture at final concentrations ranging from 10 μM to 0.5 nM. The final DMSO concentration is 0.6%. Following a pre-incubation of 30 minutes at RT, the reaction is started by the addition of L-tryptophan at a final concentration of 200 μM in assay buffer. After 30 minutes of incubation at RT, 3 μL of the reaction mixture are transferred to a 384 deep well plate containing 25 μL of deionized water. 100 μl of 200 nM L-Tryptophan-(indole-d5) in cold 100% methanol are added followed by a 10 minutes centrifugation at 4,000 rpm at 4° C. An additional 75 μL of deionized water are then added and followed by a 10 minutes centrifugation at 4,000 rpm at 4° C. The product of the reaction N′-Formylkynurenine (NFK) is quantified by LCMS and normalized to the L-Tryptophan-(indole-d5) signal. Samples with 0.6% DMSO (0% effect) and a TDO/IDO inhibitor (100% effect) are used as control samples to set the parameters for the non-linear regression necessary for the determination of the half-maximal inhibitory concentration (IC50) for each compound. For each compound concentration the percentage of activity compared to 0% and 100% effect is calculated as average±STDEV (each concentration measured in duplicate). IC50 values and curves are generated with XLfit software (IDBS) using Dose-Response One Site model 203 (four parameter logistic curve model). When compounds are measured multiple times, mean values are given.

Sequence of Recombinant full-length human IDO1 (P14902 whole entry): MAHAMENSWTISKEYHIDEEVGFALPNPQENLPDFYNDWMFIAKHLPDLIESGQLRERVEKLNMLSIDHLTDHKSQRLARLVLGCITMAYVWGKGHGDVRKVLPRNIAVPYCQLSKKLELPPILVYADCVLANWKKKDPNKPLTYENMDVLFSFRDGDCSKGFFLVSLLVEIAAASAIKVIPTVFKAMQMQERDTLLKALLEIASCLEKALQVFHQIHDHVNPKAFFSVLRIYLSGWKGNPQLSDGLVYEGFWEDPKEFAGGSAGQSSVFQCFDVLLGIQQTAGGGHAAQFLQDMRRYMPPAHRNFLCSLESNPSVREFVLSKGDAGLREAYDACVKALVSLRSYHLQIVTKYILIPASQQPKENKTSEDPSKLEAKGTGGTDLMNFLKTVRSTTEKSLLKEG
Sequence of Recombinant human TDO comprising amino acids 19-407 (P48775 19-406 limits assumed): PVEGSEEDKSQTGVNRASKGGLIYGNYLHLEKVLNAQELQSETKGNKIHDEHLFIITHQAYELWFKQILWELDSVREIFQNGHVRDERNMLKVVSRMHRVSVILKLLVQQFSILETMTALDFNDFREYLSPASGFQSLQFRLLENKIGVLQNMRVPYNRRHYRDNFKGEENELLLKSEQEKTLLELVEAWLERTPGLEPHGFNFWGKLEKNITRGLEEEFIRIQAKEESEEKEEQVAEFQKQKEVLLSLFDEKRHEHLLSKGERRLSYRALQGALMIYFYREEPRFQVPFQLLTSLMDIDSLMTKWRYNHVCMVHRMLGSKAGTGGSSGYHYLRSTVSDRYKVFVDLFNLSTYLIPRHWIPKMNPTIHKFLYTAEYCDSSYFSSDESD

Compound | IC50 [1] [nM] | IC50 [2] [nM]
OC(c1c(C2CC2)sc2cncn12)C1CCC1 (racemic) [Example 43, rac-Cyclobutyl-(2-cyclopropyl-imidazo[5,1-b]thiazol-3-yl)-methanol] | 25.1 | 907
CC1CCC(C(O)c2c(C3CC3)sc3cncn23)CC1 (racemic) [Example 44, rac-(2-Cyclopropyl-imidazo[5,1-b]thiazol-3-yl)-(4-methyl-cyclohexyl)-methanol] | 15.8 | 383
CCC1CCC(C(O)c2c(C3CC3)sc3cncn23)CC1 (racemic) [Example 45, rac-(2-Cyclopropyl-imidazo[5,1-b]thiazol-3-yl)-(4-ethyl-cyclohexyl)-methanol] | 35.7 | 583
OC(c1c(C2CC2)sc2cncn12)C1CCCC1 (racemic) [Example 46, rac-Cyclopentyl-(2-cyclopropyl-imidazo[5,1-b]thiazol-3-yl)-methanol] | 11.4 | 473
CC1CCC(CC(O)c2c(C3CC3)sc3cncn23)CC1 (racemic) [Example 49, rac-1-(2-Cyclopropyl-imidazo[5,1-b]thiazol-3-yl)-2-(4-methyl-cyclohexyl)-ethanol] | 50.3 | 638
OC(c1ccccc1)c1c(C2CC2)sc2cncn12 (racemic) [Example 50, rac-(2-Cyclopropyl-imidazo[5,1-b]thiazol-3-yl)-phenyl-methanol] | 50.5 | 989
Cc1ccc(C(O)c2c(C3CC3)sc3cncn23)cc1 (racemic) [Example 51, rac-(2-Cyclopropyl-imidazo[5,1-b]thiazol-3-yl)-p-tolyl-methanol] | 48.4 | 1460
Cc1cccc(C(O)c2c(C3CC3)sc3cncn23)c1 (racemic) [Example 52, rac-(2-Cyclopropyl-imidazo[5,1-b]thiazol-3-yl)-m-tolyl-methanol] | 64.8 | 22.3
CCc1ccc(C(O)c2c(C3CC3)sc3cncn23)cc1 (racemic) [Example 53, rac-(2-Cyclopropyl-imidazo[5,1-b]thiazol-3-yl)-(4-ethyl-phenyl)-methanol] | 60.1 | 1530
CCc1cccc(C(O)c2c(C3CC3)sc3cncn23)c1 (racemic) [Example 54, rac-(2-Cyclopropyl-imidazo[5,1-b]thiazol-3-yl)-(3-ethyl-phenyl)-methanol] | 120 | 1850
COc1ccc(C(O)c2c(C3CC3)sc3cncn23)cc1 (racemic) [Example 55, rac-(2-Cyclopropyl-imidazo[5,1-b]thiazol-3-yl)-(4-methoxy-phenyl)-methanol] | 86.9 | 2270
COc1cccc(C(O)c2c(C3CC3)sc3cncn23)c1 (racemic) [Example 56, rac-(2-Cyclopropyl-imidazo[5,1-b]thiazol-3-yl)-(3-methoxy-phenyl)-methanol] | 251 | 3310
Cc1sc2cncn2c1C(O)c1cccs1 (racemic) [Example 57, rac-(2-Methyl-imidazo[5,1-b]thiazol-3-yl)-thiophen-2-yl-methanol] | 433 | 829
Cc1sc2cncn2c1C(O)c1ccc(N(C)C)cc1 (racemic) [Example 58, rac-(4-Dimethylamino-phenyl)-(2-methyl-imidazo[5,1-b]thiazol-3-yl)-methanol] | 1430 | > 10200
OC(Cc1ccccc1)c1c(C2CC2)sc2cncn12 (racemic) [Example 59, rac-1-(2-Cyclopropyl-imidazo[5,1-b]thiazol-3-yl)-2-phenyl-ethanol] | 249 | 881
OC(Cc1c(Cl)cccc1Cl)c1c(C2CC2)sc2cncn12 (racemic) [Example 60, rac-1-(2-Cyclopropyl-imidazo[5,1-b]thiazol-3-yl)-2-(2,6-dichloro-phenyl)-ethanol] | 287 | 455
Cc1ccccc1CC(O)c1c(C2CC2)sc2cncn12 (racemic) [Example 61, rac-1-(2-Cyclopropyl-imidazo[5,1-b]thiazol-3-yl)-2-o-tolyl-ethanol] | 431 | 578
COc1cccc(CC(O)c2c(C)sc3cncn23)c1 (racemic) [Example 62, rac-2-(3-Methoxy-phenyl)-1-(2-methyl-imidazo[5,1-b]thiazol-3-yl)-ethanol] | 3150 | 7160
OC(c1c(C(F)(F)F)sc2cncn12)C1CCCCC1 (racemic) [Example 63, rac-Cyclohexyl-(2-trifluoromethyl-imidazo[5,1-b]thiazol-3-yl)-methanol] | 27 | 564

Now from value to molecule:

IC50 [1] [nM] | IC50 [2] [nM] | Compound
69 | 3180 | OC(CC1CCCCC1)c1c(C(F)(F)F)sc2cncn12 (racemic) [Example 64, rac-2-Cyclohexyl-1-(2-trifluoromethyl-imidazo[5,1-b]thiazol-3-yl)-ethanol]
325 | 3510 | OC(Cc1cccc2ccccc12)c1c(C2CC2)sc2cncn12 (racemic) [Example 67, rac-1-(2-Cyclopropyl-imidazo[5,1-b]thiazol-3-yl)-2-naphthalen-1-yl-ethanol]
14.4 | 29.3 | C=Cc1sc2cncn2c1C(O)C1CCCCC1 (racemic) [Example 68, rac-Cyclohexyl-(2-vinyl-imidazo[5,1-b]thiazol-3-yl)-methanol]
72.1 | 746 | OC(c1c(C2CC2)sc2cncn12)C1CCC2(CCCC2)CC1 (racemic) [Example 70, rac-(2-Cyclopropyl-imidazo[5,1-b]thiazol-3-yl)-spiro[4.5]dec-8-yl-methanol]
28.5 | 263 | OC(CC1CCC(F)(F)CC1)c1c(C2CC2)sc2cncn12 (racemic) [Example 71, rac-1-(2-Cyclopropyl-imidazo[5,1-b]thiazol-3-yl)-2-(4,4-difluoro-cyclohexyl)-ethanol]
102 | 1470 | CC(C)C1CCC(C(O)c2c(C3CC3)sc3cncn23)CC1 (racemic) [Example 72, rac-(2-Cyclopropyl-imidazo[5,1-b]thiazol-3-yl)-(4-isopropyl-cyclohexyl)-methanol]
43.7 | 3110 | OC(c1c(C2CC2)sc2cncn12)C1CCC(c2ccccc2)CC1 (racemic) [Example 73, rac-(2-Cyclopropyl-imidazo[5,1-b]thiazol-3-yl)-(4-phenyl-cyclohexyl)-methanol]
950 | 4330 | CC(C)(C)C1CCC(CC(O)c2c(C3CC3)sc3cncn23)CC1 (racemic) [Example 74, rac-2-(4-tert-Butyl-cyclohexyl)-1-(2-cyclopropyl-imidazo[5,1-b]thiazol-3-yl)-ethanol]
43.3 | 772 | OC(c1c(C2CC2)sc2cncn12)C1CCC(C(F)(F)F)CC1 (racemic) [Example 81, rac-(2-Cyclopropyl-imidazo[5,1-b]thiazol-3-yl)-(4-trifluoromethyl-cyclohexyl)-methanol]
